Reference: patent US6083957A, “Heterocyclic compounds and their preparation and use” (Novo Nordisk A/S, priority 1996, dated 2000)
pIC50: −log10 of the molar value. Blank lines part the entries; values can stand above or below the compound they belong to.

How the values were obtained:
[1] = biological target: muscarinic acetylcholine receptors; assay: inhibition of specific binding of 3H-Oxotremorine-M (3H-Oxo), rat cortex homogenate; set-up: species or system male Wistar rats; conditions: 1.0 nM 3H-Oxotremorine, pH 7.4, 30 min, 25° C
From the text: The pharmacological properties of the compounds of the invention can be illustrated by determining their capability to inhibit the specific binding of ^3 H-Oxotremorine-M (^3 H-Oxo). Birdsdall N. J. M., Hulme E. C., and Burgen A. S. V. (1980). "The Character of Muscarinic Receptors in Different Regions of the Rat Brain". Proc. Roy. Soc. London (Series B) 207,1.
The inhibitory effects of compounds on ^3 H-Oxo binding reflects the affinity for muscarinic acetylcholine receptors.
All preparations are performed at 0-4° C. unless otherwise indicated. Fresh cortex (0.1-1 g) from male Wistar rats (150-250 g) is homogenized for 5-10 s in 10 ml 20 mM Hepes pH: 7.4, with an Ultra-Turrax homogenizer. The homogenizer is rinsed with 10 ml of buffer and the combined suspension centrifuged for 15 min. at 40,000×g. The pellet is washed three times with buffer. In each step the pellet is homogenized as before in 2×10 ml of buffer and centrifuged for 10 min. at 40,000×g.
The final pellet is homogenized in 20 mM Hepes pH: 7.4 (100 ml per g of original tissue) and used for binding assay. Aliquots of 0.5 ml is added 25 ul of test solution and 25 ul of ^3 H-Oxotremorine (1.0 nM, final concentration) mixed and incubated for 30 min. at 25° C. Non-specific binding is determined in triplicate using arecoline (1 ug/ml, final concentration) as the test substance. After incubation samples are added 5 ml of ice-cold buffer and poured directly onto Whatman GF/C glass fiber filters under suction and immediately washed 2 times with 5 ml of ice-cold buffer. The amount of radioactivity on the filters are determined by conventional liquid scintillation counting. Specific binding is total binding minus non specific binding.
Test substances are dissolved in 10 ml water (if necessary heated on a steam-bath for less than 5 min.) at a concentration of 2.2 mg/ml. 25-75% inhibition of specific binding must be obtained before calculation of IC50.
The test value will be given as IC50 (the concentration (nM) of the test substance which inhibits the specific binding of ^3 H-Oxo by 50%).
(§1) IC50 =(applied test substance concentration) [formula] where Co is specific binding in control assays and Cx is the specific binding in the test assay. (The calculations assume normal mass-action kinetics).

[2] = biological target: T1, subtype of muscarinic receptors (M1-site) (Rattus norvegicus, UniProt P08482); assay: inhibition of 3H-PRZ (pirenzepine, [N-methyl-3H]) binding to rat cerebral cortex membranes; set-up: species or system male Wistar rats; conditions: 1.0 nM 3H-Pirenzepine, pH 7.4, 60 min, 20° C, read-out: IC50, 3H-Pz
T1 construct: from tissue; host or cells: rat cerebral cortex membranes (male Wistar rats)
T1 sequence (P08482 1-460): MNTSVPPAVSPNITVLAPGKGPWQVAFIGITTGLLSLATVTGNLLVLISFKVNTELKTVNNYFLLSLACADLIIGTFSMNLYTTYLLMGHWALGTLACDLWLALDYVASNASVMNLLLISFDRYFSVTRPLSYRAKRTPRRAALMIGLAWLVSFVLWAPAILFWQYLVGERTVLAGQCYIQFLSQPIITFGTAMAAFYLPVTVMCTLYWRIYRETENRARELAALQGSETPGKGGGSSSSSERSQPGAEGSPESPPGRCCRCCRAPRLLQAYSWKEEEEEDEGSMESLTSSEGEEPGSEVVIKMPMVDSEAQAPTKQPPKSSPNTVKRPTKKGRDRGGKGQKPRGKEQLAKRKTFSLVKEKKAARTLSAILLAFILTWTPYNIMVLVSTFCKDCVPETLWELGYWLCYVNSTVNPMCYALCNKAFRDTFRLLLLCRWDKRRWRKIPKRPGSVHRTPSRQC
From the text: Furthermore the pharmacological properties of the compounds of the invention can also be illustrated by determining their capability to inhibit ^3 H-PRZ (pirenzepine, [N-methyl-^3 H]) binding to rat cerebral cortex membranes.
Pirenzepine binds selectively to subtype of muscarinic receptors. Historically the type is named the M1 -site, whereas pirenzepine sensitive site would be more appropriate. Although selective for M1 -sites pirenzepine also interact with M2 -sites.
All preparations are performed at 0-4° C. unless otherwise indicated. Fresh cortex (0.1-1 g) from male Wistar rats (150-200 g) is homogenized for 5-10 s. in 10 ml 20 mM Hepes pH: 7.4, with an Ultra-Turraxhomogenizer. The homogenizer is rinzed with 2×10 ml of buffer and the combined suspension centrifuged for 15 min at 40,000 xg. The pellet is washed three times with buffer. In each step the pellet is homogenized as before in 3×10 ml of buffer and centrifuged for 10 min at 40,000 xg.
The final pellet is homogenized in 20 mM Hepes pH: 7.4 (100 ml per g of original tissue) and used for binding assay. Aliquots of 0.5 ml is added 20 μl of test solution and 25 μl of ^3 H-Pirenzepine·(1.0 nM, final conc.), mixed and incubated for 60 min at 20° C. Non-specific binding is determined in triplicate using atropine (1 μg/ml, final conc.) as the test substance. After incubation samples are added 5 ml of ice-cold buffer and poured directly onto Whatman GF/C glass fiber filters inder suction and immediately washed 2 times with 5 ml of ice-cold buffer. The amount of radioactivity on the filters are determined by conventional liquid scintillation counting. Specific binding is total binding minus non-specific binding.
Test substances are dissolved in 10 ml water, at a concentration of 0.22 mg/ml. 25-75% inhibition of specific binding must be obtained before calculation of IC50.
The test value will be given as IC50 (the concentration, nM) of the test substance which inhibits the specific binding of ^3 H-PRZ by 50%.
as §1

SMILES: CCCCCSc1nsnc1[C@H]1C[N@@+]2(C)CCC[C@@H]1C2 (relative stereo) [Compound 6, Endo 6-(3-Pentylthio-1,2,5-thiadiazol-4-yl)-1-methyl-1-azabicyclo[3.2.1]octane iodide]
pIC50 [1]: 8.32
pIC50 [2]: 8.64

SMILES: CCCCCSc1nsnc1[C@@H]1C[N@@+]2(C)CCC[C@@H]1C2 (relative stereo) [Compound 7, Exo 6-(3-Pentylthio-1,2,5-thiadiazol-4-yl)-1-methyl-1-azabicyclo[3.2.1]octane iodide]
pIC50 [1]: 8.31
pIC50 [2]: 6.87

SMILES: C[N+]12CCCC(C1)C(c1nsnc1OCC#Cc1ccsc1)C2 (single isomer, unassigned) [Compound 11, Exo(+) 6-(3-(3-(3-Thienyl)-2-propyn-1-yloxy)-1,2,5-thiadiazol-4-yl)-1-azabicyclo[3.2.1]-octane iodide]
pIC50 [1]: 7.46

SMILES: C[N+]12CCCC(C1)C(c1nsnc1OCC#Cc1cccs1)C2 (single isomer, unassigned) [Compound 12, Exo(+) 6-(3-(3-(2-Thienyl)-2-propyn-1-yloxy)-1,2,5-thiadiazol-4-yl)-1-azabicyclo[3.2.1]-octane iodide]
pIC50 [1]: 7.20

SMILES: C[N+]12CCCC(C1)C(c1nsnc1SCC#Cc1ccccc1)C2 (single isomer, unassigned) [Compound 13, Exo(+) 6-(3-(3-(3-Phenyl)-2-propyn-1-ylthio)-1,2,5-thiadiazol-4-yl)-1-azabicyclo[3.2.1]-octane iodide]
pIC50 [1]: 7.89

SMILES: CCCCSc1nsnc1C1C[N+]2(C)CCC1CC2 (centres unmarked) [Compound 4, 3-(3-Butylthio-1,2,5-thiadiazol-4-yl)-1-methyl-1-azabicyclo[2.2.2]octane iodide]
pIC50 [1]: 8.82
pIC50 [2]: 8.31

SMILES: CCOc1nsnc1C1=CCC[N+](C)(CC)C1 (centres unmarked) [Compound 10, 3-(3-Ethoxy-1,2,5-thiadiazol-4-yl)-1,2,5,6-tetrahydro-1-ethyl-1-methyl-pyridinium iodide]
pIC50 [1]: 7.81
pIC50 [2]: 7.25

The next lines start with the values.

pIC50 [1]: 8.48
pIC50 [2]: 8.06
SMILES: CCCCSc1nsnc1[C@H]1C[N@@+]2(C)CCC[C@@H]1C2 (relative stereo) [Compound 5, Endo 6-(3-Butylthio-1,2,5-thiadiazol-4-yl)-1-methyl-1-azabicyclo[3.2.1]octane iodide]

pIC50 [1]: 8.47
pIC50 [2]: 8.22
SMILES: CCCCCCSc1nsnc1C1=CCC[N+](C)(C)C1 [Compound 1, 3-(3-Hexylthio-1,2,5-thiadiazol-4-yl)-1,2,5,6-tetrahydro-1,1-dimethylpyridinium iodide]

pIC50 [1]: 8.48
pIC50 [2]: 8.05
SMILES: CCCCCCOc1nsnc1C1=CCC[N+](C)(C)C1 [Compound 2, 3-(3-Hexyloxy-1,2,5-thiadiazol-4-yl)-1,2,5,6-tetrahydro-1,1-dimethylpyridinium iodide]

pIC50 [1]: 9.23
pIC50 [2]: 8.35
SMILES: CCOc1nsnc1C1=CCC[N+](C)(C)C1 [Compound 3, 3-(3-Ethoxy-1,2,5-thiadiazol-4-yl)-1,2,5,6-tetrahydro-1,1-dimethylpyridinium iodide]

pIC50 [1]: 8.46
pIC50 [2]: 7.55
SMILES: CCSc1nsnc1C1=CCC[N+](C)(CC)C1 (centres unmarked) [Compound 8, 3-(3-Ethylthio-1,2,5-thiadiazol-4-yl)-1,2,5,6-tetrahydro-1-ethyl-1-methylpyridinium iodide]

pIC50 [1]: 8.80
pIC50 [2]: 7.59
SMILES: CCSc1nsnc1C1=CCC[N+](C)(C)C1 [Compound 9, 3-(3-Ethylthio-1,2,5-thiadiazol-4-yl)-1,2,5,6-tetrahydro-1,1-dimethylpyridinium iodide]
